US4256729A, “N,N'-Bis-(2,3-dihydroxypr opyl)-2,4,6-triiodo-5-(2-keto-L-gulonamido)isophthalamide and radiological compositions containing same” (Mallinckrodt, Inc., priority 1979, dated 1981)
Where two headings read alike, the source gives them in different places.

Key:
in vivo [1] = settings: mouse, in vivo, icv or intrathecal
Experimental: (§1) The following pharmacological studies were conducted on N,N'-bis-(2,3-dihydroxypropyl)-2,4,6-triiodo-5-(2-keto-L-gulonamido)isophthalamide prepared by Method II (PRODUCT).
(§2) Employing a slightly modified version of the techique developed by Haley and McCormick (Brit. J. Pharmacol. 12: 12-15, 1957), young adult male and female Swiss mice received injections of a solution of the PRODUCT directly into lateral ventricles and brain tissue.

Swiss mice [2] = assay: Acute Intracerebral Toxicity in Mice; settings: intracerebral, 250-400 mg I/ml; seven day observation; 95% limits 1,203-1,772
Experimental: as §1, §2

[3] = system: cisterna magna, basal cisterns, and cervical subarachnoid space; assay: Radiographic observations in rat (lateral radiographs of head and thorax after intracisternal injection); assay type: in vivo; settings: male rat, pentobarbital anesthetized; 140 mg I/kg intracisternally (28% I solution); immediately and 3 minutes after administration; Method I product
Experimental: A pentobarbital anesthetized male rat received 140 mg I/kg of the N,N'-bis-(2,3-dihydroxypropyl)-2,4,6-triiodo-5-(2-keto-L-gulonamido)isophthalamide prepared by Method I, (28% I solution) intracisternally.

in vivo [4] = settings: mouse, in vivo, iv
Experimental: as §1
(§3) A solution of the PRODUCT was injected into the lateral tail vein of young adult male and female Swiss mice at a rate of 1 ml/min.

Swiss mice [5] = assay: Acute Intraveneous Toxicity in Mice; settings: i.v., 1 ml/min, 400 mg I/ml; seven day observation; 95% limits 18,161-20,510
Experimental: as §1, §3

in vivo [6] = settings: rat, in vivo
Experimental: as §1
(§4) The technique described by Melartin et al. (Invest. Radiol. 5: 13-21, 1970) was utilized to evaluate lethal effects of a solution of the PRODUCT after injection into cerebrospinal fluid at the cisterna magna. Young adult male and female Sprague Dawley rats were used. After dosing, the animals were housed individually and observed for immediate reactions and periodically for a two day observation period.

Sprague Dawley rats = assay: Acute Intracisternal Toxicity in Rats; settings: intracisternal, 444 mg I/ml; two day observation; 95% limits 582-951
Experimental: as §1, §4

dogs = assay: Acute intracisternal Neurotoxicity in Dogs; assay type: in vivo; settings: dosage range 200-244 mg I/kg, constant 0.5 ml/kg volume dose
Experimental: Adult dogs of either sex were employed for this procedure and were briefly anesthetized with thiopentol sodium during the injection of a solution of the compound. The PRODUCT was administered into cerebrospinal fluid at the cisterna magna at varying concentrations but at a constant 0.5 ml/kg volume dose. Animals were thereafter observed for neurotoxicity with the following results.

[7] = Stability in aqueous solution by tlc and lc analysis; assay type: physicochemical; settings: Method I product
Experimental: (§5) The product was dissolved in water (sterile water for injection, 1 liter). The solution was evaporated to about 800 ml under reduced pressure at 55° and treated with active charcoal (Darco G-60, 7.0 g) at room temperature overnight. The solution was filtered (first through a Whatman #4 filter paper and then through a Millipore 0.22 μ filter paper), and the clear filtrate was evaporated under reduced pressure at 50°-60° to give a white glassy solid. The product, which was dried under vacuum at 50°-60° for 5 hours, weighed 53.0 g (60% yield). The compound softens at 190°-195° and decomposes above 220°. […] Nmr and ir data are consistent with the assigned structure IX. Elemental analysis: Calcd. for C20 H26 I3 N3 O12 : C, 27.26; H, 2.97; I, 43.21; N, 4.77; Found: C, 26.92; H, 3.15; I, 42.92; N, 4.40.

[8] = system: cardiovascular and renal excretory systems; assay: Radiographic observations in mouse (whole body radiographs after i.v. injection); assay type: in vivo; settings: male mouse, pentobarbital anesthetized; 10,000 mg I/kg i.v. (28% I solution), 1/2 ml/minute; immediately after administration; Method I product
Experimental: A male mouse (20 g) was anesthetized with sodium pentobarbital (60 mg/kg, i.p.; Diabutal®, Diamond Laboratories).

Solubility in water = assay type: physicochemical
Experimental: as §5
2. Solubility: ≥100% w/v.

O=C(Nc1c(I)c(C(=O)NCC(O)CO)c(I)c(C(=O)NCC(O)CO)c1I)C(=O)[C@@H](O)[C@H](O)[C@@H](O)CO (stereo partly drawn) [IX, N,N'-Bis-(2,3-dihydroxypropyl)-2,4,6-triiodo-5-(2-keto-L-gulonamido)isophthalamide]
LD50 at 168 h (in vivo [1]): 3380 mg/kg | LD50 /(95% Confidence Limits) (Swiss mice [2]): 1,460 mg I/kg | visualization on lateral radiographs of head and thorax [3]: good visualization of the cisterna magna, basal cisterns, and cervical subarachnoid space | LD50 at 168 h (in vivo [4]): 44700 mg/kg | LD50 /(95% Confidence Limits) (Swiss mice [5]): 19,300 mg I/kg | LD50 at 48 h (in vivo [6]): 1720 mg/kg | LD50 /(95% Confidence Limits) (Sprague Dawley rats): 744 mg I/kg | Minimum Convulsion Dose (dogs): > 244 mg I/kg | stability in aqueous solution [7]: stable in aqueous solution | opacification on whole body radiographs [8]: opacification of the cardiovascular and renal excretory systems | solubility (Solubility in water; Method II product): ≥ 100 % w/v | solubility (Solubility in water; water, Method I product, read-out: solubility in water): ≥ 1000 mg/mL
